The source of these data is patent US8367658B2, “Pyrazin-2-yl-pyridin-2-yl-amine and pyrazin-2-yl-pyrimidin-4-yl-amine compounds and their use” (Cancer Research Technology Limited, priority 2007, dated 2013).

Bounds are passed on as bounds.

In the experiment the target is T1, CHK1 (Homo sapiens, UniProt O14757).
T1 sequence (O14757 1-476): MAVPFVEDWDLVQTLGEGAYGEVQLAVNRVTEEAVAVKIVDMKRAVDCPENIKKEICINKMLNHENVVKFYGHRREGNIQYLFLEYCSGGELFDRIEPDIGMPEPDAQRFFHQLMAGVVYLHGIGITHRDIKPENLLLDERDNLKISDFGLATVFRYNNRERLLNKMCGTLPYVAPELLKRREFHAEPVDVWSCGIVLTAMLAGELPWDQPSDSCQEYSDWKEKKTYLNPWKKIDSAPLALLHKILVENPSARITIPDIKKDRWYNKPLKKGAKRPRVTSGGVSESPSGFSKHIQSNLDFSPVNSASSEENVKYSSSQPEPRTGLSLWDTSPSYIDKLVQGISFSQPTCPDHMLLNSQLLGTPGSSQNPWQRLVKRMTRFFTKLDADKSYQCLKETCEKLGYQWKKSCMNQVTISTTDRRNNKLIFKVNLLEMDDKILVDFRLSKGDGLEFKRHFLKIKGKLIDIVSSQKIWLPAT
Put plainly: CHK1 kinase function inhibition assay (DELFIA, phosphorylation of a CDC25C peptide). Format: biochemical. The settings on record: CHK1 1 nM, ATP 30 μM, 30 minutes at room temperature. A digest of the protocol: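 Phosphorylation of a CDC25C peptide detected by DELFIA with a phospho-specific antibody. Kinase reaction ran 30 min at room temperature, was stopped with EDTA buffer, then captured on neutravidin-coated plates for 1 h before time-resolved fluorescence read-out with enhancement solution.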
Usually IC50 stands for the point on the concentration scale where inhibition reaches its midpoint. As for `COc1cccc(-c2cnc(Nc3cnc(C#N)cn3)cc2NC2CCN(C)CC2)c1` [Compound Y-116, 5-(5-(3-Methoxyphenyl)-4-(1-methylpiperidin-4-ylamino)pyridin-2-ylamino)pyrazine-2-carbonitrile], the concentration for half-maximal inhibition (IC50) is not above 100 nM. With `COCCOc1ccc(-c2cnc(Nc3cnc(C#N)cn3)cc2NC2CCN(C)CC2)cc1` [Compound Y-117, 5-(5-(4-(2-Methoxyethoxy)phenyl)-4-(1-methylpiperidin-4-ylamino)pyridin-2-ylamino)pyrazine-2-carbonitrile] the figure was not above 100 nM. Under `COCCOc1cccc(-c2cnc(Nc3cnc(C#N)cn3)cc2NC2CCN(C)CC2)c1` [Compound Y-118, 5-(5-(3-(2-methoxyethoxy)phenyl)-4-(1-methylpiperidin-4-ylamino)pyridin-2-ylamino)pyrazine-2-carbonitrile] stands not above 100 nM. With `COCc1ccc(-c2cnc(Nc3cnc(C#N)cn3)cc2NC2CCN(C)CC2)cc1` [Compound Y-119, 5-(5-(4-(Methoxymethyl)phenyl)-4-(1-methylpiperidin-4-ylamino)pyridin-2-ylamino)pyrazine-2-carbonitrile] the figure was not above 100 nM. The molecule `CN1CCC(Nc2cc(Nc3cnc(C#N)cn3)ncc2-c2ccc(N3CCOCC3)cc2)CC1` [Compound Y-120, 5-(4-(1-Methylpiperidin-4-ylamino)-5-(4-morpholinophenyl)pyridin-2-ylamino)pyrazine-2-carbonitrile] registered a half-inhibitory concentration (IC50) not above 100 nM. Under `Cc1ccccc1-c1cnc(Nc2cnc(C#N)cn2)cc1NC1CCN(C)CC1` [Compound Y-121, 5-(4-(1-Methylpiperidin-4-ylamino)-5-o-tolylpyridin-2-ylamino)pyrazine-2-carbonitrile] stands 100 to 1000 nM; under `COc1ccc(-c2cnc(Nc3cnc(C#N)cn3)cc2NC2CCNCC2)cc1` [Compound Y-122, 5-(5-(4-Methoxyphenyl)-4-(piperidin-4-ylamino)pyridin-2-ylamino)pyrazine-2-carbonitrile], not above 100 nM; under `COC/C=C/c1cnc(Nc2cnc(C#N)cn2)cc1NC1CCN(C)CC1` [Compound Y-123, (E)-5-(5-(3-methoxyprop-1-enyl)-4-(1-methylpiperidin-4-ylamino)pyridin-2-ylamino)pyrazine-2-carbonitrile], not above 100 nM.

In the case of `N#Cc1cnc(Nc2cc(NCC3CCNCC3)c(Cl)cn2)cn1` [Compound Y-124, 5-(5-chloro-4-(piperidin-4-ylmethylamino)pyridin-2-ylamino)pyrazine-2-carbonitrile], the IC50 was not above 100 nM.

Regarding `COc1ccc(-c2cnc(Nc3cnc(C#N)cn3)cc2NCC2CCNCC2)cc1` [Compound Y-126, 5-(5-(4-Methoxyphenyl)-4-(piperidin-4-ylmethylamino)pyridin-2-ylamino)pyrazine-2-carbonitrile], the IC50 was not above 100 nM.

`COCc1ccc(-c2cnc(Nc3cnc(C#N)cn3)cc2NCC2CCNCC2)cc1` [Compound Y-127, 5-(5-(4-(Methoxymethyl)phenyl)-4-(piperidin-4-ylmethylamino)pyridin-2-ylamino)pyrazine-2-carbonitrile]: the IC50 was not above 100 nM.

`CCOC(=O)c1cc(-c2cnc(Nc3cnc(C#N)cn3)cc2NCC2CCNCC2)cs1` [Compound Y-128, Ethyl 4-(6-(5-cyanopyrazin-2-ylamino)-4-(piperidin-4-ylmethylamino)pyridin-3-yl)thiophene-2-carboxylate] registered an IC50 not above 100 nM. With `N#Cc1cnc(Nc2cc(NCC3CCNCC3)c(-c3ccc(OCCO)cc3)cn2)cn1` [Compound Y-129, 5-(5-(4-(2-hydroxyethoxy)phenyl)-4-(piperidin-4-ylmethylamino)pyridin-2-ylamino)pyrazine-2-carbonitrile] the figure was not above 100 nM; with `CS(=O)(=O)c1ccc(-c2cnc(Nc3cnc(C#N)cn3)cc2NCC2CCNCC2)cc1` [Compound Y-130, 5-(5-(4-(methylsulfonyl)phenyl)-4-(piperidin-4-ylmethylamino)pyridin-2-ylamino)pyrazine-2-carbonitrile], not above 100 nM; with `CS(=O)(=O)c1cccc(-c2cnc(Nc3cnc(C#N)cn3)cc2NCC2CCNCC2)c1` [Compound Y-132, 5-(5-(3-(Methylsulfonyl)phenyl)-4-(piperidin-4-ylmethylamino)pyridin-2-ylamino)pyrazine-2-carbonitrile], 100 to 1000 nM. With `COCCCOc1ccc(-c2cnc(Nc3cnc(C#N)cn3)cc2NCC2CCNCC2)cc1` [Compound Y-133, 5-(5-(4-(3-Methoxypropoxy)phenyl)-4-(piperidin-4-ylmethylamino)pyridin-2-ylamino)pyrazine-2-carbonitrile] the figure was 100 to 1000 nM; with `N#Cc1cnc(Nc2cc(NCC3CCNCC3)c(-c3ccc4c(c3)OCCO4)cn2)cn1` [Compound Y-134, 5-(5-(2,3-Dihydrobenzo[b][1,4]dioxin-6-yl)-4-(piperidin-4-ylmethylamino)pyridin-2-ylamino)pyrazine-2-carbonitrile], 100 to 1000 nM. In turn, `COc1ccc(-c2cnc(Nc3cnc(C#N)cn3)cc2NCC2(F)CCNCC2)cc1` [Compound Y-136, 5-(4-((4-Fluoropiperidin-4-yl)methylamino)-5-(4-methoxyphenyl)pyridin-2-ylamino)pyrazine-2-carbonitrile] showed an IC50 not above 100 nM.

In the case of `COc1ccc(-c2cnc(Nc3cnc(C#N)cn3)cc2NCCC2CNCCO2)cc1` (stereo not drawn) [Compound Y-137, 5-(5-(4-methoxyphenyl)-4-(2-(morpholin-2-yl)ethylamino)pyridin-2-ylamino)pyrazine-2-carbonitrile], the IC50 was not above 100 nM. Under `N#Cc1cnc(Nc2cc(NCCC3CNCCO3)c(-c3ccccc3)cn2)cn1` (stereo not drawn) [Compound Y-138, 5-(4-(2-(Morpholin-2-yl)ethylamino)-5-phenylpyridin-2-ylamino)pyrazine-2-carbonitrile] stands not above 100 nM; under `COC/C=C/c1cnc(Nc2cnc(C#N)cn2)cc1NCC1CCNCC1` [Compound Y-139, (E)-5-(5-(3-Methoxyprop-1-enyl)-4-(piperidin-4-ylmethylamino)pyridin-2-ylamino)pyrazine-2-carbonitrile], not above 100 nM; under `COCCCc1cnc(Nc2cnc(C#N)cn2)cc1NCC1CCNCC1` [Compound Y-141, 5-(5-(3-methoxypropyl)-4-(piperidin-4-ylmethylamino)pyridin-2-ylamino)pyrazine-2-carbonitrile], not above 100 nM. With `N#Cc1cnc(Nc2cc(NCC3CCNCC3)c(CCCCO)cn2)cn1` [Compound Y-142, 5-(5-(4-hydroxybutyl)-4-(piperidin-4-ylmethylamino)pyridin-2-ylamino)pyrazine-2-carbonitrile] the figure was 100 to 1000 nM; with `N#Cc1cnc(Nc2cc(NCC3CCNCC3)c(C#CCO)cn2)cn1` [Compound Y-145, 5-(5-(3-Hydroxyprop-1-ynyl)-4-(piperidin-4-ylmethylamino)pyridin-2-ylamino)pyrazine-2-carbonitrile], not above 100 nM. With `COCc1ccc(-c2cnc(Nc3cnc(C#N)cn3)cc2NC[C@@H]2CNCCO2)cc1` [Compound Y-148, (S)-5-(5-(4-(Methoxymethyl)phenyl)-4-(morpholin-2-ylmethylamino)pyridin-2-ylamino)pyrazine-2-carbonitrile] the figure was not above 100 nM; with `COCCOc1ccc(-c2cnc(Nc3cnc(C#N)cn3)cc2NC[C@@H]2CNCCO2)cc1` [Compound Y-149, (S)-5-(5-(4-(2-Methoxyethoxy)phenyl)-4-(morpholin-2-ylmethylamino)pyridin-2-ylamino)pyrazine-2-carbonitrile], not above 100 nM; with `COCC#Cc1cnc(Nc2cnc(C#N)cn2)cc1NC[C@@H]1CNCCO1` [Compound Y-154, (S)-5-(5-(3-Methoxyprop-1-ynyl)-4-(morpholin-2-ylmethylamino)pyridin-2-ylamino)pyrazine-2-carbonitrile], not above 100 nM. With `COC(C)(C)C#Cc1cnc(Nc2cnc(C#N)cn2)cc1NC[C@@H]1CNCCO1` [Compound Y-155, (S)-5-(5-(3-Methoxy-3-methylbut-1-ynyl)-4-(morpholin-2-ylmethylamino)pyridin-2-ylamino)pyrazine-2-carbonitrile], the IC50 is not above 100 nM. For `COCc1ccc(-c2cnc(Nc3cnc(C#N)cn3)cc2NC[C@H]2CNCCO2)cc1` [Compound Y-156, (R)-5-(5-(4-(Methoxymethyl)phenyl)-4-(morpholin-2-ylmethylamino)pyridin-2-ylamino)pyrazine-2-carbonitrile], the IC50 is not above 100 nM. With `COCCOc1ccc(-c2cnc(Nc3cnc(C#N)cn3)cc2NC[C@H]2CNCCO2)cc1` [Compound Y-157, (R)-5-(5-(4-(2-Methoxyethoxy)phenyl)-4-(morpholin-2-ylmethylamino)pyridin-2-ylamino)pyrazine-2-carbonitrile] the figure was not above 100 nM; with `COCCCc1cnc(Nc2cnc(C#N)cn2)cc1NC[C@H]1CNCCO1` [Compound Y-159, (R)-5-(5-(3-Methoxypropyl)-4-(morpholin-2-ylmethylamino)pyridin-2-ylamino)pyrazine-2-carbonitrile], not above 100 nM. With `c1cnc(Nc2cc(NCC3CCNCC3)ncn2)cn1` [Compound Z-004, N-(Piperidin-4-ylmethyl)-W-pyrazin-2-ylpyrimidine-4,6-diamine] the figure was 1000 to 10000 nM. As for `NCCCNc1cc(Nc2cnccn2)ncn1` [Compound Z-005, N-(3-Aminopropyl)-A-pyrazin-2-ylpyrimidine-4,6-diamine], the IC50 is 1000 to 10000 nM.
